Structures can show the parent of a compound that is named as a salt.
Columns and labels:
Type in all cases: cell-based
[1] = tested on: panel of cell lines that included NSCLC, HNSCC, melanoma, and CRC; test: WST8 in vitro sensitivity to MTAs with and without EM
Procedure: Day 1: cells were harvested cells from flask (4 mL accutase for T175 for 3-5 minutes), and spin down for 5 mins at 1200 rpm. The supernatant was poured off, and the pellet gently resuspended in 1 mL media. Countess counts were performed, and the cells were diluted in media (10% FBS). With multi-channel pipette, 2500 cells were seeded in 100 uL of media (10% FBS) in each well of 96 well plate. The cells were let to adhere and grow for 24 hours. Day 2: serial drug dilutions of MTAs+/−EMs at 5× of concentrations (as done above) were performed in media (10% FBS). 20 uL of media form each well of the 96 well plate (80 uL media left in wells) was removed, and 20 uL of appropriate 5× drug dilutions was added to each respective well (for a 1× conc). The cells were incubated with drug for 72 hours in 37C incubator. Day 5: 10 uL of WST-8 reagent was added to each well of the 96 well plate and mixed gently. the plates were incubated up to 4 hours at 37C in dark, and absorbance readings were taken at […] and 600 nm wavelengths at 1, 2, 3 and 4h, until control absorbance levels were 1.5-2.0).
We used a panel of cell lines that included NSCLC, HNSCC, melanoma, and CRC. These cell lines are a good model system harboring similar (epi)genetic changes found in patients' tumors. We used the WST8 assay to determine the in vitro sensitivity to various MTAs with and without EM1.

[2] = tested on: H1975 (EGFR-double mutant line); test: MTT cell survival assay; settings: erlotinib 14 μM alone; H1975; 72 hours
Procedure: Cells (10^4 cells/well) were grown in 96-well plates and exposed for 72 hours to different doses of erlotinib, alone or in combination with EM2. The percentage of cell survival was determined using the 3-(4, 5-dimethylthiazol-2-yl)-2, 5-diphenyltetrazolium bromide (MTT). Single drug alone and vehicle were kept as controls.

Ca-922 cell line = test: HoPI live cell staining; set-up: concentration or dose not given beside the values; settings: single agent, 24 hours
Source text: (§1) A double stain of Hoechst 33342 and propidium iodide allows for the determination of cell viability with high specificity and low background noise, as compared to trypan blue staining. Hoechst 33342 is a cell permeable blue fluorescent nuclear stain which will stain all cell types. Propidium iodide is a cell impermeable red fluorescent nuclear stain that will only bind to the nuclei of cells with compromised membranes (dead cells). The staining can be performed rapidly on live cell suspensions within 15 minutes. 25 uL of 4× Hoechst 33342 Solution (40 ug/mL) and 25 uL of 4×Propidium Iodide Solution are added to 50 uL of cell suspension. The suspension was gently mixed 10 times and 50 uL was immediately transferred to a microfluidic cell counting chip. A 365 nm LED was used to excite both Hoechst 33342 and propidium iodide. Images of the cells were captured using a 10× objective lens on an Olympus microscope using a Canon EOS 6D camera using an ISO of 800 and an exposure of 2 seconds; both JPEG and RAW images were saved for analysis. The blue channel was used to measure the total number of cells and the red channel was used to measure the number of dead cells. Cell counting was performed automatically by the Image Pro software (Media Cybernetics, Inc).
MTA and EM effects on apoptosis were measured by Hoechst-Propidium Iodide staining (HoPI). For the assay, cells were seeded in 6-well plates at 400K cells per well, in 2 mL of 10% FBS-containing media and incubated for 24 hours. At 24 hours, a 1 nM to […] range of MTA and/or 1 ng/mL to 1 mg/mL range of EM doses was added and incubated for 24 hours. After 24 hours incubation respective cells' media was collected, added the 1× HBSS wash from the plate in the respective tube. Adherent cells were detached by treating with Accutase for 6 minutes and collected in respective tubes. All samples were centrifuged for 5 minutes at 1200 RPM. The cell pellets were resuspended in PBS and centrifuged again for 5 minutes at 1200 RPM. Cell pellets were resuspended in 200 uL of PBS and mixed properly to get single cell suspension. 50 uL of cell suspension was added into separate tubes having 10 uL of a 2× HOPI solution (20 ug/mL Hoechst 33342 and 20 ug/mL propidium iodide solution) to get a final concentration of Hoechst 33342 and propidium iodide to […]. Make up the volume to 100 uL with 40 uL of PBS. Samples were mixed thoroughly for even cell staining and the microfluidsic chip wells were each filled with 10 uL of sample. Chips were then incubated in the dark for 20 minutes. A 365 nm LED was used to excite both Hoechst 33342 and propidium iodide as they were visualize under a microscope. Cell images were captured using a 10× objective lens on an Olympus microscope using a Canon EOS 6D camera with an ISO of 800 and an exposure of 2 seconds; both JPEG and RAW images were saved for analysis. The blue channel was used to measure the total number of cells and the red channel was used to measure the number of dead cells. For image analysis, a copy of the image was created and converted directly into an 8-bit gray scale image. A threshold was placed on the image to create a binary mask; the threshold level was 20 intensity units out of 255 intensity units. Next, a particle analysis algorithm was applied to the binary mask and a set of cellular regions (between 100 to 800 cellular regions per image) was created. The original image was then split into red, green and blue channels. The area, mean intensity, standard deviation of the mean intensity, minimum intensity, maximum intensity and perimeter were measured for each cellular region in the red channel and also in the blue channel. The green channel was discarded. To discern between live and dead cells, the maximum intensity in the red channel was used with a threshold of 100 intensity units. Double plots were created using the intensity of the blue channel (X-axis) and the intensity of the red channel (Y-axis). […]

A-253 cells = test: Western blot of protein biomarkers; settings: spermidine (50 μM)+GM-CSF (50 ng/mL)
Procedure: (§2) MTA and EM effects on protein biomarker expression were measured by western blotting. For the assay cell lines (Ca9-22, PE/CA-PJ15, HTB-38, HPAF-II, CAL27, BICR-16, A-253, Calu-6, PC-9, H1838, RPMI-7951 and A7) were cultured and treated with doses of MTAs alone, EMs alone and in combination and then lysed for protein analysis. This method can readily be conducted under adherent or suspension conditions, manually or on automated instruments, such as SnapPath. A total of 0.3×10^6 cells per well were seeded in 6 well plates with 10% FBS-containing media and incubated for 24 hours. Cells were then treated with MTA and/or EM concentrations for 24 hours. For total protein extraction, briefly, each sample media was collected, and wells were washed with HMS, and the wash was combined with its respective media collection. Cells were then detached using Accutase solution and again collected in its respective sample media and another HMS well wash and collection was performed. All cell solutions were centrifuged, washed with ice-cold PBS, and centrifuged again. Cell pellets were lysed in 250 μL of ice-cold 1× lysis buffer with protease and phosphatase inhibitor cocktails and incubated for 10 minutes on ice. Lysates were clarified with a centrifugation (14,000 rpm) for 10 minutes at 4° C. Cell lysates were quantified using Bio-Rad DC Protein Assay (Bio-Rad Cat. #5000116).
(§3) For all western blots, an equal amount of protein (3-5 μg) was loaded into SDS-polyacrylamide gels (Mini-Protean TGX Precast Gel; Bio-Rad, e.g. 7.5%, Cat. #4561024; 10%, Cat. #4561035; 12%, Cat. #4561045; or 4-15%, Cat. #4561085). Proteins were separated at 215V for at least 30 minutes in 1× Tris/Glycine/SDS buffer (Bio-Rad Cat. #1610772) and transferred to PVDF membranes using a Trans-Blot Turbo (Bio-Rad Cat. #1704155) for 7 minutes in transfer buffer (Trans-Blot Turbo Transfer Kit, Bio-Rad Cat. #1704273). Blots were blocked at room temperature for 1 hour with 5% non-fat dry milk in tris-buffered saline with Tween 20 (TBST; 15 mM Tris-HCl, pH 7.5, 200mMNaCl and 0.1% Tween 20). Membranes were incubated with primary antibodies at 4° C. overnight and at room temperature for 1 hour the next day; all primary antibodies were diluted following manufacturer's specifications in TBST with either 5% BSA or 5% non-fat dry milk. Membranes were washed in TBST for 5 minutes, three times, and incubated with HRP-conjugated secondary antibodies diluted 1:5000 in TBST with 5% non-fat dry milk at room temperature for 1 hour (anti-rabbit IgG, Bio-Rad Cat. #1706515; or anti-mouse IgG, Bio-Rad Cat. #1706516). Membranes were then washed in TBST for 10 minutes, three times, and target proteins were identified using Clarity Western ECL Substrate (Bio-Rad Cat. #1705061) on autoradiography film (GenHunter Cat. #B581, Nashville, Tenn., USA). Other assay types, such as Luminex multiplexed immunoassays, ICC, IHC, flow cytometry, etc. can be used readily.

RPMI-1975 = test: HoPI live cell staining; settings: single agent, 24 hours
Source text: as §1
MTA and EM effects on apoptosis were measured by Hoechst-Propidium Iodide staining (HoPI). For the assay, cells were seeded in 6-well plates at 400K cells per well, in 2 mL of 10% FBS-containing media and incubated for 24 hours. At 24 hours, a 1 nM to […] range of MTA and/or 1 ng/mL to 1 mg/mL range of EM doses was added and incubated for 24 hours. After 24 hours incubation respective cells' media was collected, added the 1× HBSS wash from the plate in the respective tube. Adherent cells were detached by treating with Accutase for 6 minutes and collected in respective tubes. All samples were centrifuged for 5 minutes at 1200 RPM. […] The area, mean intensity, standard deviation of the mean intensity, minimum intensity, maximum intensity and perimeter were measured for each cellular region in the red channel and also in the blue channel. […]

PE/CA-PJ15 cells = test: Western blot of protein biomarkers; settings: spermidine (50 μM)+IL-12 (50 ng/mL)
Procedure: as §2, §3

Molecule: transforming growth factor-beta-1 [EM3]
- response enhancement (in vitro sensitivity to various MTAs with and without EM, WST8) [1]: no, minimal and strong response enhancement

Molecule: interleukin 6 [EM4]
- response enhancement (in vitro sensitivity to various MTAs with and without EM, WST8) [1]: no, minimal and strong response enhancement

Molecule: C#Cc1cccc(Nc2ncnc3cc(OCCOC)c(OCCOC)cc23)c1 [erlotinib, Erlotinib hydrochloride, reference compound]
- cell survival (MTT), effect of erlotinib alone [2]: absence of effect

Molecule: C=CC(=O)Nc1cc(Nc2nccc(-c3cn(C)c4ccccc34)n2)c(OC)cc1N(C)CCN(C)C [osimertinib, Osimertinib, reference compound]
- reduction in the number of live cells (HoPI) (Ca-922 cell line): 41%

Molecule: granulocyte-macrophage colony-stimulating factor [EM10]
- Ki67 expression (A-253 cells; compared to both MTA and EM alone): enhanced reduction in Ki67 expression
- LC3II expression (A-253 cells; compared to either alone): LC3II upregulation
- p62 expression (A-253 cells; compared to either alone): reduction in p62

Molecule: COc1ncc(-c2ccc3nccc(-c4ccnnc4)c3c2)cc1NS(=O)(=O)c1ccc(F)cc1F [GSK458, Omipalisib, reference compound]
- reduction in live cells (HoPI) (RPMI-1975): 30%
- reduction in the number of live cells (HoPI) (Ca-922 cell line): 22%

B1: interleukin 12 (protein, UniProt P29459 23-219; P29460 23-328, looked up)
Interleukin-12 subunit alpha: RNLPVATPDPGMFPCLHHSQNLLRAVSNMLQKARQTLEFYPCTSEEIDHEDITKDKTSTVEACLPLELTKNESCLNSRETSFITNGSCLASRKTSFMMALCLSSIYEDLKMYQVEFKTMNAKLLMDPKRQIFLDQNMLAVIDELMQALNFNSETVPQKSSLEEPDFYKTKIKLCILLHAFRIRAVTIDRVMSYLNAS
Interleukin-12 subunit beta: IWELKKDVYVVELDWYPDAPGEMVVLTCDTPEEDGITWTLDQSSEVLGSGKTLTIQVKEFGDAGQYTCHKGGEVLSHSLLLLHKKEDGIWSTDILKDQKEPKNKTFLRCEAKNYSGRFTCWWLTTISTDLTFSVKSSRGSSDPQGVTCGAATLSAERVRGDNKEYEYSVECQEDSACPAAEESLPIEVMVDAVHKLKYENYTSSFFIRDIIKPDPPKNLQLKPLKNSRQVEVSWEYPDTWSTPHSYFSLTFCVQVQGKSKREKKDRVFTDKTSATVICRKNASISVRAQDRYYSSSWSEWASVPCS
notes: enhancer molecule, cytokine purchased from Sigma
- p62 expression (PE/CA-PJ15 cells): increased expression
- LC3II over LC3I expression (PE/CA-PJ15 cells; 24 hours, compared to either alone): marked increase in LC3II over LC3I expression

From US20220339257A1, “METHODS TO INCREASE THE SENSITIVITY AND REVERSING THE RESISTANCE TO DRUGS” (Biomarker Strategies, LLC, priority 2019, published 2022)
